Experimental findings from patent US10093660B2, “Sulfoximine substituted quinazolines for pharmaceutical compositions” (EVOTEC INTERNATIONAL GMBH, priority 2013, dated 2018) are described below.

One assay addresses MNK1a (Homo sapiens (Human), UniProt Q9BUB5). The assay can be described thus: MNK1 in vitro kinase assay (Assay 3), Z'-LYTE. Format: biochemical. As to conditions: for inhibition at 1 µM: compound concentration of 1 μM, read-out: MNK1 % INH.
Another assay has as its target MNK2a (Homo sapiens (Human), UniProt Q9HBH9). Put plainly: MNK2a in vitro kinase assay (Assay 2), ADP-Glo. To be noted: assay 2; read-out: MNK2 IC50. Format: biochemical. The source says:
B. MNK2a In Vitro Kinase Assay (Assay 2)
In general terms: ADP-Glo first removes unused ATP, then detects ADP through luciferase.

MNK2a, sequence (Q9HBH9 whole entry): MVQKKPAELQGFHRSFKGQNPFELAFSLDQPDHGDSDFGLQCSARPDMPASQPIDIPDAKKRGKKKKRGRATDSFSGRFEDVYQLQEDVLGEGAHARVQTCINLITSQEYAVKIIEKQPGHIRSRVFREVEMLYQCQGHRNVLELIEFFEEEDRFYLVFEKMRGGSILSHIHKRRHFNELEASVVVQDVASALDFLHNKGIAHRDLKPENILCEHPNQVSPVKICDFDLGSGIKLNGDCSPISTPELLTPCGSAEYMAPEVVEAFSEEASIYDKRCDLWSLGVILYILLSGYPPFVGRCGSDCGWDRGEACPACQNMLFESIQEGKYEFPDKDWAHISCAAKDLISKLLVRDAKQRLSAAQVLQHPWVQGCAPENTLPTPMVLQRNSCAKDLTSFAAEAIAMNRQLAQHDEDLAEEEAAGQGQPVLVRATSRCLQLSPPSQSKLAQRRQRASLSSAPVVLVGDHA
MNK1a, sequence (Q9BUB5 other isoform, or with tags, fused parts or gaps): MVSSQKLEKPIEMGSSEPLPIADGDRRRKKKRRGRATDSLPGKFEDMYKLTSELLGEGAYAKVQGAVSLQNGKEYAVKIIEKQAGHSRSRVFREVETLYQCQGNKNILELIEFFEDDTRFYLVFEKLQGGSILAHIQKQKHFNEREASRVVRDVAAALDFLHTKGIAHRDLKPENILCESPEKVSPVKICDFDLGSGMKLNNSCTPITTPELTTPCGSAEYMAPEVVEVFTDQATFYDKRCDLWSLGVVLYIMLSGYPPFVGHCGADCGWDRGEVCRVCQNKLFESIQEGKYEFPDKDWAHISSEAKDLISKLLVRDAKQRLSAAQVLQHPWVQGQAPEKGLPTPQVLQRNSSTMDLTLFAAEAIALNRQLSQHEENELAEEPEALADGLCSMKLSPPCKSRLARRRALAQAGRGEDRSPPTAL

As a reminder, the IC50 is the point on the concentration scale where inhibition reaches its midpoint. Turning to `CS(C)(=O)=Nc1cc(Br)c2c(Nc3ccc(F)cc3O[C@H]3COC[C@@H]3O)ncnc2c1` [Example 1.18], at MNK1a, the inhibition at 1 µM is 97%. For the same compound, the IC50 at MNK2a came to 2 nM.

As to `COc1cc(N=S2(=O)CCCC2)cc2ncnc(Nc3cccnc3O[C@H]3COC[C@H]3O)c12` (racemic) [Example 8.5], the inhibition at 1 µM at MNK1a turned out to be 97%. Moreover, at MNK2a, the IC50 turned out to be 21 nM.

Take `COc1cc(N=S2(=O)CCCC2)cc2ncnc(Nc3cccnc3O[C@H]3COC[C@@H]3O)c12` [Example 8.3]: at MNK1a, the inhibition at 1 µM worked out at 97%. In addition, the half-inhibitory concentration (IC50) at MNK2a was found to be 6 nM.

In the case of `CO[C@@H]1CN(C(=O)OCc2ccccc2)C[C@H]1Oc1ncccc1Nc1ncnc2cc(N=S3(=O)CCCC3)cc(C)c12` [Example 2.16], the inhibition at 1 µM at MNK1a stood at 55%. Besides, on MNK2a, the IC50 turned out to be 82 nM.

In the case of `O=S1(=Nc2cc(C(F)(F)F)c3c(Nc4ccc(F)cc4O[C@H]4COC[C@@H]4O)ncnc3c2)CCCC1` [Example 1.28], the inhibition at 1 µM at MNK1a was 96%. In addition, the IC50 on MNK2a worked out at 4 nM.

Consider `Cc1cc(N=S(C)(C)=O)cc2ncnc(Nc3ccc(Cl)cc3O[C@H]3COC[C@@H]3O)c12` [Example 1.23], for which the inhibition at 1 µM on MNK1a amounted to 99%. The IC50 on MNK2a is 5 nM.

Consider `Cc1cc(N=S2(=O)CCC2)cc2ncnc(Nc3ccc(Cl)cc3O[C@H]3COC[C@@H]3O)c12` [Example 1.29], for which the inhibition at 1 µM at MNK1a was found to be 100%. Moreover, the IC50 at MNK2a was found to be 2 nM.

As to `COc1cc(N=S(C)(=O)C2CCOCC2)cc2ncnc(Nc3ccc(F)cc3O[C@H]3COC[C@H]3O)c12` (mixture of isomers) [Example 9.15], at MNK1a, the inhibition at 1 µM is 82%. Moreover, the 50% inhibitory concentration (IC50) at MNK2a was 32 nM.

For the compound `Cc1cc(N=S(C)(=O)C(C)C)cc2ncnc(Nc3ccc(F)cc3O[C@H]3COC[C@@H]3O)c12` (stereo partly drawn) [Example 2.74], at MNK1a, the inhibition at 1 µM came out at 91%. Besides, at MNK2a, the IC50 was found to be 7 nM.

Consider `Cc1cc(N=S(C)(C)=O)cc2ncnc(Nc3ccc(F)cc3O[C@@H]3CN(C)C[C@H]3O)c12` [Example 2.6], for which the inhibition at 1 µM at MNK1a came to 63%. For the same compound, the concentration for half-maximal inhibition (IC50) on MNK2a came to 91 nM.

Regarding `O=S1(=Nc2cc(F)c3c(Nc4ccc(F)cc4O[C@H]4COC[C@@H]4O)ncnc3c2)CCC1` [Example 2.92], on MNK1a, the half-inhibitory concentration (IC50) worked out at 44 nM and the inhibition at 1 µM came out at 99%. The IC50 at MNK2a was 2 nM.

Take `COc1cc(N=S2(=O)CCC2)cc2ncnc(Nc3cccnc3O[C@H]3COC[C@H]3O)c12` (racemic) [Example 8.4]: the IC50 at MNK1a came out at 104 nM; at MNK2a it was 11 nM.

In the case of `Cc1cc(N=S2(=O)CCC2)cc2ncnc(Nc3ccc(Cl)cc3O[C@@H]3COC[C@H]3O)c12` [Example 1.30], at MNK1a, the inhibition at 1 µM is 93%. For the same compound, the IC50 at MNK2a worked out at 3 nM.

In the case of `COc1cc(N=S(C)(=O)c2ccccc2)cc2ncnc(Nc3ccc(F)cc3O[C@H]3COC[C@H]3O)c12` (mixture of isomers) [Example 9.21], the inhibition at 1 µM on MNK1a turned out to be 84%. The IC50 at MNK2a was determined as 23 nM.

With `Cc1cc(N=S2(=O)CCCC2)cc2ncnc(Nc3ccc(F)cc3O[C@H]3CN(S(C)(=O)=O)C[C@@H]3O)c12` [Example 2.60], the IC50 is 37 nM against MNK1a and 3 nM on MNK2a.

For the compound `COc1cc(N=S(C)(=O)C(C)(C)C)cc2ncnc(Nc3ccc(F)cc3O[C@H]3COC[C@H]3O)c12` (mixture of isomers) [Example 9.19], the IC50 on MNK1a was 329 nM; on MNK2a, 42 nM.

For the compound `Cc1cc(N=S(C)(C)=O)cc2ncnc(Nc3ccc(F)cc3O[C@H]3COC[C@H]3OCCF)c12` (racemic) [Example 10.2], the inhibition at 1 µM at MNK1a amounted to 93%. Further, the IC50 on MNK2a came out at 2 nM.

`O=S1(=Nc2cc(Cl)c3c(Nc4ccc(F)cc4O[C@H]4COC[C@H]4O)ncnc3c2)CCCC1` (racemic) [Example 1.5]: the inhibition at 1 µM on MNK1a turned out to be 88%. The IC50 on MNK2a came to 2 nM.

Take `COc1cc(N=S2(=O)CCC(C)C2)cc2ncnc(Nc3ccc(F)cc3O[C@H]3COC[C@@H]3O)c12` (stereo partly drawn) [Example 9.24]: the inhibition at 1 µM at MNK1a worked out at 97%. Also, the concentration for half-maximal inhibition (IC50) at MNK2a was 4 nM.

With `Cc1cc(N=S(C)(=O)C(C)(C)C)cc2ncnc(Nc3ccc(F)cc3O[C@@H]3COC[C@@H]3O)c12` (mixture of isomers) [Example 2.68], at MNK1a, the inhibition at 1 µM worked out at 94%. In addition, the IC50 at MNK2a was 11 nM.

Turning to `CC(=O)O[C@H]1CN(C(C)=O)C[C@@H]1Oc1ncccc1Nc1ncnc2cc(N=S3(=O)CCCC3)cc(C)c12` [Example 6.10], the inhibition at 1 µM on MNK1a was found to be 38%. Further, the IC50 on MNK2a stood at 378 nM.

Take `CC(=O)N1C[C@@H](O)[C@H](Oc2ncccc2Nc2ncnc3cc(N=S(C)(C)=O)cc(C)c23)C1` [Example 2.21]: the inhibition at 1 µM on MNK1a is 57%. In addition, the IC50 on MNK2a was found to be 179 nM.

For the compound `CO[C@@H]1CN(C(=O)OCc2ccccc2)C[C@H]1Oc1cc(F)ccc1Nc1ncnc2cc(N=S3(=O)CCCC3)cc(C)c12` [Example 2.15], the inhibition at 1 µM on MNK1a was 31%. For the same compound, the 50% inhibitory concentration (IC50) on MNK2a was determined as 78 nM.

Take `COc1cc(N=S2(=O)CCC2)cc2ncnc(Nc3ccc(F)cc3O[C@H]3COC[C@@H]3O)c12` [Example 9.10]: the half-inhibitory concentration (IC50) at MNK1a is 28 nM; at MNK2a, 3 nM. Besides, the inhibition at 1 µM on MNK1a was 104%.

In the case of `Cc1cc(N=S2(=O)CCCC2)cc2ncnc(Nc3cccnc3O[C@@H]3CN(S(C)(=O)=O)C[C@H]3O)c12` [Example 2.22], the inhibition at 1 µM at MNK1a stood at 86%. Besides, the IC50 on MNK2a is 7 nM.

Turning to `CS(C)(=O)=Nc1cc(F)c2c(Nc3ccc(Cl)nc3O[C@H]3COC[C@@H]3O)ncnc2c1` [Example 1.21], the inhibition at 1 µM at MNK1a was 93%. For the same compound, the IC50 on MNK2a is 7 nM.

On to `Cc1cc(N=S2(=O)CCCC2)cc2ncnc(Nc3cccnc3O[C@@H]3CN(C)C[C@H]3O)c12` [Example 2.18], for which the IC50 came to 359 nM against MNK1a and 49 nM at MNK2a.

Consider `COc1cc(N=S2(=O)CCCC2)cc2ncnc(Nc3ccc(F)cc3O[C@H]3COC[C@H]3OC)c12` (racemic) [Example 9.2], for which the inhibition at 1 µM at MNK1a stood at 94%. Further, the IC50 on MNK2a was 2 nM.

Consider `Cc1cc(N=S2(=O)CCCC2)cc2ncnc(Nc3ccc(F)cc3O[C@H]3COC[C@H]3C#N)c12` [Example 1.1], for which the IC50 against MNK1a was 104 nM; at MNK2a, 9 nM.

Take `Cc1cc(N=S2(=O)CCCC2)cc2ncnc(Nc3ccc(F)cc3O[C@H]3COC[C@H]3OCC(F)F)c12` (racemic) [Example 10.4]: the inhibition at 1 µM at MNK1a amounted to 104%. In addition, the 50% inhibitory concentration (IC50) at MNK2a came to 3 nM.

With `Cc1cc(N=S(C)(C)=O)cc2ncnc(Nc3ccc(F)cc3O[C@H]3COC[C@H]3C#N)c12` [Example 1.2], the IC50 was found to be 383 nM against MNK1a and 19 nM at MNK2a.

In the case of `Cc1cc(N=S2(=O)CCC2)cc2ncnc(Nc3ccc(Cl)nc3O[C@H]3COC[C@@H]3O)c12` [Example 2.43], the inhibition at 1 µM at MNK1a stood at 100%. At MNK2a, the IC50 was found to be 3 nM.

On to `Cc1cc(N=S(C)(=O)c2cccnc2)cc2ncnc(Nc3ccc(F)cc3O[C@@H]3COC[C@@H]3O)c12` (mixture of isomers) [Example 2.70], for which, at MNK1a, the inhibition at 1 µM was 92%. Besides, the IC50 on MNK2a was determined as 10 nM.

In the case of `COc1cc(N=S(C)(=O)c2cccnc2)cc2ncnc(Nc3ccc(F)cc3O[C@H]3COC[C@H]3O)c12` (mixture of isomers) [Example 9.12], the inhibition at 1 µM at MNK1a is 86%. Also, the IC50 on MNK2a is 27 nM.

As to `CO[C@@H]1CN(C(C)=O)C[C@H]1Oc1cc(F)ccc1Nc1ncnc2cc(N=S3(=O)CCCC3)cc(C)c12` [Example 6.2], the inhibition at 1 µM at MNK1a amounted to 31%. Moreover, the IC50 at MNK2a was determined as 185 nM.

For the compound `CO[C@@H]1CN(CC(F)F)C[C@H]1Oc1ncccc1Nc1ncnc2cc(N=S3(=O)CCCC3)cc(C)c12` [Example 5.5], the inhibition at 1 µM on MNK1a stood at 85%. In addition, at MNK2a, the IC50 came to 13 nM.

On to `COc1cc(N=S2(=O)CCCC2)cc2ncnc(Nc3ccc(F)cc3O[C@H]3COC[C@@H]3O)c12` [Example 9.29], for which, at MNK1a, the inhibition at 1 µM is 94%. For the same compound, the IC50 at MNK2a is 3 nM.

Turning to `Cc1cc(N=S2(=O)CCCCC2)cc2ncnc(Nc3ccc(F)cc3O[C@H]3COC[C@@H]3O)c12` [Example 2.38], the inhibition at 1 µM on MNK1a is 96%. Further, the IC50 on MNK2a amounted to 3 nM.

With `O=S1(=Nc2cc(Cl)c3c(Nc4ccc(F)cc4O[C@H]4COC[C@@H]4O)ncnc3c2)CCCC1` [Example 1.9], at MNK1a, inhibition was half-maximal at 28 nM (IC50) and the inhibition at 1 µM is 98%. In addition, the 50% inhibitory concentration (IC50) on MNK2a turned out to be 2 nM.

Regarding `Cc1cc(N=S2(=O)CCCC2)cc2ncnc(Nc3ccc(F)cc3O[C@@H]3CN(S(C)(=O)=O)C[C@H]3O)c12` [Example 2.12], the values for the IC50 against MNK1a and on MNK2a were 94 nM and 3 nM, respectively.

For `CO[C@@H]1COC[C@@H]1Oc1cc(F)ccc1Nc1ncnc2cc(N=S(C)(C)=O)cc(F)c12` (racemic) [Example 2.57], the inhibition at 1 µM at MNK1a was 82%. The 50% inhibitory concentration (IC50) at MNK2a was determined as 6 nM.

As for `Cc1cc(N=S2(=O)CCCC2)cc2ncnc(Nc3cccnc3O[C@H]3CNC[C@@H]3O)c12` [Example 3.3], the inhibition at 1 µM at MNK1a worked out at 88%. Further, the IC50 on MNK2a came out at 26 nM.

Regarding `Cc1cc(N=S2(=O)CCC(C)C2)cc2ncnc(Nc3ccc(F)cc3O[C@H]3COC[C@@H]3O)c12` (stereo partly drawn) [Example 2.85], the inhibition at 1 µM at MNK1a was 97%. Further, the IC50 at MNK2a is 3 nM.

On to `COc1cc(N=S2(=O)CCC(C)C2)cc2ncnc(Nc3ccc(F)cc3O[C@H]3COC[C@H]3O)c12` (mixture of isomers) [Example 9.23], for which the inhibition at 1 µM on MNK1a was determined as 93%. At MNK2a, the IC50 was found to be 8 nM.

Turning to `Cc1cc(N=S(C)(C)=O)cc2ncnc(Nc3ccc(F)cc3O[C@H]3CN(S(C)(=O)=O)C[C@@H]3O)c12` [Example 2.59], the inhibition at 1 µM on MNK1a came out at 99%. Moreover, the IC50 on MNK2a worked out at 4 nM.

`CO[C@H]1COC[C@@H]1Oc1ncccc1Nc1ncnc2cc(N=S3(=O)CCCC3)cc(C)c12` (racemic) [Example 2.39]: the inhibition at 1 µM at MNK1a was found to be 86%. On MNK2a, the IC50 turned out to be 7 nM.

`CO[C@@H]1CN(C(C)=O)C[C@H]1Oc1cc(F)ccc1Nc1ncnc2cc(N=S(C)(C)=O)cc(C)c12` [Example 6.1]: the inhibition at 1 µM on MNK1a was found to be 10%. Besides, the IC50 at MNK2a came out at 389 nM.

For `CO[C@@H]1CNC[C@H]1Oc1ncccc1Nc1ncnc2cc(N=S(C)(C)=O)cc(C)c12` [Example 4.5], the inhibition at 1 µM at MNK1a was 63%. Also, on MNK2a, the IC50 was found to be 33 nM.
